Measurements reported in US20210332024A1, “MODULATORS OF PIN1 ACTIVITY AND USES THEREOF” (Yeda Research and Development Co. Ltd., priority 2019, published 2021).

Tests used:
[1] = Thiol reactivity assay (DTNB); format: physicochemical; conditions: 200 μM compound, pH 7.4, 37° C.
Description: 50 μM DTNB (dithionitrobenzoic acid) was incubated with 200 μM TCEP (tris(2-carboxytehyl)phosphine) in 20 mM sodium phosphate buffer (pH 7.4) with 150 mM NaCl, for 5 minutes at room temperature, in order to obtain TNB^2− (thionitrobenzoate dianion). 200 μM compounds were subsequently added to the TNB^2−, followed by immediate UV absorbance measurement at 412 nm (at 37° C.). The UV absorbance was acquired every 15 minutes for 7 hours. The assay was performed in a 384-well plate using a Spark™ 10M plate reader (Tecan). Background absorbance of compounds was subtracted by measuring the absorbance at 412 nm of each compound under the same conditions without DTNB. Compounds were measured in triplicates. The data was fitted to a second order reaction equation such that the rate constant k is the slope of ln([A][B0]/[B][A0]), where [A0] and [B0] are the initial concentrations of the compound (200 μM) and TNB^2− (100 μM) respectively, and [A] and [B] are the remaining concentrations as a function of time, as determined from the spectrometric measurement. Linear regression using Prism® software was performed to fit the rate against the first four hours of measurements.
In order to estimate the influence of the various lipophilic moieties on “warhead” reactivity [Flanagan et al., J Med Chem 2014, 57:10072-10079; Lonsdale et al., J Chem Inf Model 2017, 57:3124-3137; Dahal et al., Medchemcomm 2016, 7:864-872], the thiol reactivity of the top ten binders of the second and third generation was assessed using a high-throughput assay previously applied to the entire fragment library, as described in Resnick et al. [J Am Chem Soc 2019, 141:8951-8968]. In brief, the second-order rate constant was evaluated for a model thiol, which reflects trends in general reactivity towards thiol groups.

GST-Pin1 = GST-Pin1 (Homo sapiens, UniProt Q13526); experiment: Fluorescence polarization (FP) competition assay; format: binding; conditions: FP assay, competition with fluorescein-labeled peptide, 250 nM GST-Pin1; read-out: Ki (apparent)
Sequence of GST-Pin1 (Q13526 whole entry): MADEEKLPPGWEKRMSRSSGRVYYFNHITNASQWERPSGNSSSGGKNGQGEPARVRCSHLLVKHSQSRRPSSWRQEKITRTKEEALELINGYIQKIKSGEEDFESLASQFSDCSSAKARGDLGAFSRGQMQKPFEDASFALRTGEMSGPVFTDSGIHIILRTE
Description: Binding affinity to Pin1 was determined using a fluorescence polarization assay to assess competition with an N-terminal fluorescein-labeled peptide (Bth-D-phosThr-Pip-Nal), which was obtained from JPT Peptide Technologies and Proteintech Group. The indicated concentrations of candidate compound were pre-incubated for 12 hours at 4° C. with a solution containing 250 nM glutathione S-transferase (GST)-Pin1, 5 nM of fluorescein-labeled peptide probe, 10 μg/ml bovine serum albumin, 0.01% Tween-20 and 1 mM DTT (dithiothreitol) in a buffer of 10 mM HEPES, 10 mM NaCl and 1% glycerol (pH 7.4). Measurements of FP were performed in black 384-well plates (Corning) using an EnVision™ reader. Apparent Ki values (under the tested conditions) obtained from the FP assay results were derived from the Kenakin Ki equation:
Kenakin Ki=(Lb)(EC50)(Kd)/(Lo)(Ro)+Lb(Ro−Lo+Lb−Kd)
Sittampalam G. S. et al., Eli Lilly & Company and the National Center for Advancing Translational Sciences, 2004].
Covalent labeling of Pin1 was confirmed to translate into enzyme inhibition via a fluorescence polarization (FP) competition assay using a FITC-labeled substrate mimetic peptide inhibitor, as well as a chymotrypsin-coupled PPIase assay, using procedures described in Wei et al. [Nat Med 2015, 21:457-466].
The fluorescent polarization assay was performed in a dose-dependent and time-dependent manner, in order to further characterize the kinetic parameters of Pin1-3 binding to Pin1.

catalytic domain of Pin1 = target: T1, catalytic domain of Pin1 (Homo sapiens, UniProt Q13526); experiment: Intact protein LC/MS labeling of Pin1; format: binding
T1 construct: The purified catalytic domain of Pin1 was incubated with the fragment library
T1 sequence (Q13526 52-163 limits assumed): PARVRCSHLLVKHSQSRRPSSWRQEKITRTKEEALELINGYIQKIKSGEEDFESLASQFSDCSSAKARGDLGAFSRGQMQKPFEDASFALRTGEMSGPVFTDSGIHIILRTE
Description: 993 compounds were transferred to a 384-well plate working copy by combining 0.5 μl of 20 mM stock solution of four or five compounds per well. The catalytic domain of Pin1 (2 μM) in 20 mM Tris, 75 mM NaCl, pH 7.5 was incubated with 200 μM for each compound and moderately shaken for 24 hours at 4° C. The reaction was stopped by the addition of formic acid to 0.4% (v/v) final concentration.
Liquid chromatography/mass spectroscopy runs were performed on an Acquity™ UPLC® H-class system (Waters) in positive ion mode using electrospray ionization (ESI). UPLC separation was performed on a C4 column (300 Å, 1.7 μM, […]). The column was held at 40° C., and the autosampler at 10° C. Mobile solution A was 0.1% formic acid in water and mobile phase B was 0.1% formic acid in acetonitrile. Run flow was 0.4 ml/minute; and a gradient of 20% B for 2 minutes, increasing linearly to 60% B for 3 minutes, holding at 60% B for 1.5 minutes, changing to 0% B in 0.1 minute and holding at 0% for 1.4 minutes, was used. Desolvation temperature was 500° C. with a flow rate of 1000 liters/hour. The capillary voltage was 0.69 kV and cone voltage 46 V. Raw data was processed using OpenLynx™ software and deconvoluted using the MaxEnt tool. Labeling assignment was performed as described in Resnick et al. [J Am Chem Soc 2019, 141:8951-8968].
For the screening 2 μl of each of the 448 click products as 50 μM DMSO stocks were transferred into a 384-well plate working plate. 48 μl of catalytic domain of Pin1 (2 μM) in 20 mM Tris (pH 7.5) with 75 mM NaCl were added and moderately shaken and incubated for 15 minutes at room temperature. The reaction was stopped by the addition of formic acid to 0.4% (v/v) final concentration (20 μl). The mixtures were analyzed by liquid chromatography/mass spectroscopy analogously to the electrophile library incubations described herein. Hits were retrospectively analyzed by liquid chromatography/mass spectroscopy (LC-MS) to ensure reaction completion.
For each measured well, processed peaks were searched to match the mass of unlabeled protein or common small adducts of the unlabeled protein, which were found in the control sample or labeled protein. Labeling percentage for a compound was determined as the labeling of a specific compound divided by the overall detected protein species. Peaks whose mass could not be assigned were discarded from the overall labeling calculation. Data was analyzed using a python script for processing the MaxEnt-deconvoluted spectra. Peaks were normalized from ion counts to percentages, where the highest peak is defined as 100%. The unlabeled protein mass is deduced from a reference well that contains just the protein.
The purified catalytic domain of Pin1 was incubated with the fragment library (2 μM protein, 200 μM compound; 24 hours at 4° C.), followed by intact protein liquid chromatography/mass-spectrometry (LC/MS) to identify and quantify compound labeling. FIG. 1 depicts an example of a compound identified in this manner.
Based on the docking predictions, a total of 26 compounds that featured a range of small or bulky aliphatic, arylic, biphenylic or heterocyclic side-chains (structures depicted in FIG. 5), were synthesized or purchased. In order to identify potent binders, the irreversible labeling efficiency of these second-generation compounds was assessed alongside the original screening hits under more stringent conditions, with a 1:1 ratio of protein to compound (2 μM compound; 1 hour at room temperature).
For further optimization of the lipophilic moiety, an alkyne side chain-bearing analog was prepared, which was derivatized with 448 different azides using copper-catalyzed azide-alkyne cycloaddition (CuAAC).

MDA-MB-231 cells = experiment: Cell viability assay (CellTiter-Glo); format: cell-based; conditions: cell viability assay with MDA-MB-231 cells
Description: MDA-MB-231 cells grew in DMEM medium supplemented with 10% FCS (fetal calf serum), 1% PS (penicillin-streptomycin) and 1% L-glutamine (all from Biological Industries). Exclusion of mycoplasma contamination was monitored and conducted by test with MycoAlert™ kit (Lonza). Cells were trypsinized and counted, and 1000 cells/well were plated in 50 μl of growth medium into 384-well white TC plates (Greiner) using Multidrop™ 384 (Thermo Scientific) Washer Dispenser II. The number of viable cells was monitored using CellTiter-Glo® Luminescent kit (Promega) in accordance with the manufacturer's protocol. Luminescence was measured using luminescence module of PHERAstar™ FS plate reader (BMG Labtech). Data analysis was performed using GeneData 12 analytic software. Assay ready plate preparation: Compounds transferred into black microplates (Greiner 784900) using Labcyte Echo® acoustic dispensing technology. Assay ready plates were then sealed with heat seals. If not used immediately, plates were frozen at −20° C. and held in polypropylene boxes with silica-gel desiccant.
Exemplary Pin1-binding compounds were also tested for non-selective cytotoxicity in a viability assay against IMR90 lung fibroblasts.

[2] = 2 μM Pin1 with 2 μM test compound for 1 hour at room temperature
[3] = 2 μM Pin1 with 2 μM test compound for 15 minutes at room temperature

Row | Ki (GST-Pin1) [nM] | Labeling [%] (catalytic domain of Pin1; [2]) | EC50 (MDA-MB-231 cells) [µM] | Labeling [%] (catalytic domain of Pin1; [3]) | EC50 (MDA-MB-231 cells; Homo sapiens) [µM] | SMILES | Reactivity Log k [1] | Reactivity k [1] [M⁻¹ s⁻¹] | Labeling [%] (catalytic domain of Pin1; 2 μM Pin1 with 200 μM test compound for 24 hours at 4° C.)
1 | 194 | 30 | 5.6 | – | – | Cc1cccc(CN(C(=O)CCl)C2CCS(=O)(=O)C2)c1 (centres unmarked) [Pin1-2-6] | −6.80 | 1.58e-07 | –
2 | – | 45 | 8.9 | – | – | O=C(CCl)N(Cc1cccs1)C1CCS(=O)(=O)C1 (centres unmarked) [Pin1-433] | −6.67 | 2.13e-07 | –
3 | 121 | – | – | – | – | O=C(CCl)N(CC1CC1)C1CCS(=O)(=O)C1 (centres unmarked) [Pin1-3-13] | −6.82 | 1.5e-07 | –
4 | 46 | – | – | 42 | 7.5 | O=C(CCl)N(CC1CCCCC1)C1CCS(=O)(=O)C1 (centres unmarked) [Pin1-2-3, 2-chloro-N-(sulfolan-3-yl)-N-(cyclohexylmethyl)acetamide] | −6.82 | 1.53e-07 | –
5 | 133 | 52 | 5.1 | – | – | Cc1ccsc1CN(C(=O)CCl)C1CCS(=O)(=O)C1 (centres unmarked) [Pin1-2-8] | −6.66 | 2.19e-07 | –
6 | – | – | – | 73 | – | O=C(CCl)N(Cc1cn(-c2ccc(CO)cc2)nn1)C1CCS(=O)(=O)C1 (centres unmarked) [Compound P1-02-H08] | −5.88 | 1.32e-06 | –

Second part, the compound before the results:

Row | SMILES | Ki (GST-Pin1) [nM] | Labeling [%] (catalytic domain of Pin1; [2]) | EC50 (MDA-MB-231 cells) [µM] | Labeling [%] (catalytic domain of Pin1; [3]) | EC50 (MDA-MB-231 cells; Homo sapiens) [µM] | Reactivity Log k [1] | Reactivity k [1] [M⁻¹ s⁻¹] | Labeling [%] (catalytic domain of Pin1; 2 μM Pin1 with 200 μM test compound for 24 hours at 4° C.)
7 | O=C(CCl)N(Cc1ccccc1OCc1ccccc1)C1CCS(=O)(=O)C1 (centres unmarked) [Pin1-2-7] | 39 | 37 | 6.1 | – | – | −6.99 | 1.02e-07 | –
8 | O=C1C=CC(=O)c2c(O)cccc21 [Juglone, 5-hydroxy-1,4-naphthalenedione, reference compound] | 1750 | – | – | – | – | – | – | –
9 | O=C(CCl)N(C1CCS(=O)(=O)C1)C(Cc1ccccc1)c1ccccc1 (centres unmarked) [Pin1-2-1] | 58 | 50 | 2.8 | – | – | −6.96 | 1.09e-07 | –
10 | CC1(N(Cc2ccccc2)C(=O)CCl)CCS(=O)(=O)C1 (centres unmarked) [Pin1-2-9] | 83 | 43 | 11.3 | – | – | −7.11 | 7.68e-08 | –
11 | COc1ccc(-n2cc(CN(C(=O)CCl)C3CCS(=O)(=O)C3)nn2)cc1 (centres unmarked) [Compound P1-04-B02] | – | – | – | 69 | – | −5.76 | 1.73e-06 | –
12 | O=C(CCl)N(C1CCCC1)C1CCS(=O)(=O)C1 (centres unmarked) [PCM-0102313] | – | – | – | – | – | −6.97 | 1.07e-07 | 83
